Earlier results on six compounds are cited in paper PMC12284023, “Metabolomic and chemometric profiling of crimson grapes during drying and its impact on antidiabetic activity” (NPJ Science of Food, 2025).

Structures are written as SMILES. Values after ≈ are worked out from the molar mass of the structure shown.

In one series the target is α-glucosidase enzyme. Also noted: method as in ref 56 = [56]; 56. Cásedas G Cyanidin-3-O-glucoside inhibits different enzymes involved in central nervous system pathologies and type-2 diabetes South Afr. J. Bot. 2019 120 241 246 Cásedas, G. et al. Cyanidin-3-O-g. The following applies: read-out: IC50 against α-glucosidase enzyme.
Series [1] relates to streptozotocin-induced diabetic mouse. Details: method as in ref 57 = [57]; 57. Choi K Choi S-I Park MH Han J-S Cyanidin-3-O-glucoside ameliorates postprandial hyperglycemia in diabetic mice J. Life Sci. 2017 27 32 37 Choi, K., Choi, S.-I., Park, M. H. & Han, J.-S. Cyanidin-3. The following applies: oral administration of soluble starch with compound, streptozotocin-induced diabetic mouse ref 57.

In series [2] the test system is streptozotocin-injected rat. Also noted: method as in PMID 32446112. The following applies: via suppressing uric acid, plasma glucose, triglyceride, total cholesterol, creatinine, IL-6, TNF-α, MCP-1 levels ref 60.
Series [3] deals with streptozotocin-induced diabetic rats. Also noted: method as in PMID 35932369. The following applies: streptozotocin-induced diabetic rats ref 62.
A further series has as its target pancreatic lipase. Also noted: method as in PMID 26284613. The note with it: in vitro, dose-dependent ref 61.
Series [4] concerns glycation products such as 5-hydroxymethylfurfural, fructosamine, and advanced glycation end products. Details: method as in ref 58 = [58]; 58. Ding H Blood glucose-lowering activity of protocatechuic acid is mediated by inhibiting α-glucosidase Food Sci. Hum. Wellness 2024 13 1212 1219 Ding, H. et al. Blood glucose-lowering activity of p. The note with it: advanced glycation end products ref 58.

For the next series, the system named is diabetic mice. Also noted: method as in ref 58 = [58]; 58. Ding H Blood glucose-lowering activity of protocatechuic acid is mediated by inhibiting α-glucosidase Food Sci. Hum. Wellness 2024 13 1212 1219 Ding, H. et al. Blood glucose-lowering activity of p. The note with it: diabetic mice ref 58.

Usually IC50 stands for the point on the concentration scale where inhibition reaches its midpoint. Take `OC[C@H]1O[C@@H](Oc2cc3c(O)cc(O)cc3[o+]c2-c2ccc(O)c(O)c2)[C@H](O)[C@@H](O)[C@@H]1O` [Cyanidin-3-O-glucoside]: the half-maximal inhibitory concentration (IC50) at α-glucosidase enzyme was 480 µM. For the same compound, in series [1], the “levels of postprandial blood glucose” value is “significantly decreased”.

For `CC(C)[C@@H](C)/C=C/[C@@H](C)[C@H]1CC[C@H]2C3=CC=C4C[C@@H](O)CC[C@]4(C)[C@H]3CC[C@]12C` [ergosterol, Ergosterol], the diabetic nephropathy result in series [2] is “attenuated diabetic nephropathy”.

In the case of `CC(C)(C)[C@]1(O)CC2OC(=O)CC23C(=O)OC2OC(=O)[C@H](O)C231` (some centres unmarked) [bilobalide, Bilobalide], in series [3], the anti-retinopathy activity result is reported as “exhibited anti-retinopathy activity” and the blood glucose levels result is listed as “decreased blood glucose levels”. Take `O=c1ccc2cc(O[C@@H]3O[C@H](CO)[C@@H](O)[C@H](O)[C@H]3O)c(O)cc2o1` [Esculin]: at pancreatic lipase, the “IC50 pancreatic lipase inhibition” value was 11.6 ± 0.92 µg/mL (≈ 34.1 µM).

In the case of `O=C(O)[C@H]1O[C@@H](Oc2c(-c3ccc(O)c(O)c3)oc3cc(O)cc(O)c3c2=O)[C@H](O)[C@@H](O)[C@@H]1O` [quercetin-3-O-glucuronide, Quercetin-3-O-glucuronide], the “suppression of glycation products” value in series [4] is listed as “effectively suppressed”. For `O=C(O)c1ccc(O)c(O)c1` [protocatechuic acid], in the series with diabetic mice, the postprandial hypoglycemic activity entry is listed as “acclaimed postprandial hypoglycemic activity”.
